Source: ChEMBL document CHEMBL1201862, “PubChem BioAssay data set” (2004)
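Cells were grown in 96-well plates and exposed to each compound for 48 hours at five concentrations; endpoints were interpolated linearly between bracketing concentrations, or set to the highest concentration if not reached. At the GI50, growth is halved.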 The source made the active and inactive calls. Cut-off read from the data, not from the text of the source: active = GI50 up to about 1.1 µM and inactive = higher.

Columns and labels:
Test in all cases: NCI tumour cell line growth inhibition, 48 h
SK-OV-3 = system: SK-OV-3
K562 = system: K562
UACC-62 = system: UACC-62
SNB-19 = system: SNB-19
HOP-62 = system: HOP-62
SK-MEL-5 = system: SK-MEL-5
OVCAR-3 = system: OVCAR-3
OVCAR-4 = system: OVCAR-4
KM12 = system: KM12
786-0 = system: 786-0
RXF 393 = system: RXF 393
HT-29 = system: HT-29
IGROV-1 = system: IGROV-1
SW-620 = system: SW-620
M14 = system: M14
UACC-257 = system: UACC-257
CAKI-1 = system: CAKI-1
SF-268 = system: SF-268
HCT-15 = system: HCT-15
CCRF-CEM = system: CCRF-CEM

| SMILES | GI50 (SK-OV-3) | GI50 (K562) | GI50 (UACC-62) | GI50 (SNB-19) | GI50 (HOP-62) | GI50 (SK-MEL-5) | GI50 (OVCAR-3) | GI50 (OVCAR-4) | GI50 (KM12) | GI50 (786-0) | GI50 (RXF 393) | GI50 (HT-29) | GI50 (IGROV-1) | GI50 (SW-620) | GI50 (M14) | GI50 (UACC-257) | GI50 (CAKI-1) | GI50 (SF-268) | GI50 (HCT-15) [µM] | GI50 (CCRF-CEM) |
| --- | --- | --- | --- | --- | --- | --- | --- | --- | --- | --- | --- | --- | --- | --- | --- | --- | --- | --- | --- | --- |
| Oc1cc(-c2ccccn2)nc2cc(F)ccc12 | > 100 µM (inactive) | 44.9 µM (inactive) | 55.8 µM (inactive) | > 100 µM (inactive) | > 100 µM (inactive) | 45.1 µM (inactive) | > 100 µM (inactive) | > 100 µM (inactive) | 36.1 µM (inactive) | > 100 µM (inactive) | > 100 µM (inactive) | 49.1 µM (inactive) | > 100 µM (inactive) | 36.6 µM (inactive) | 81.1 µM (inactive) | > 100 µM (inactive) | – | – | – | – |
| Sc1ncnc2c1ncn2Cc1ccco1 | > 100 µM (inactive) | > 100 µM (inactive) | > 100 µM (inactive) | > 100 µM (inactive) | > 100 µM (inactive) | > 100 µM (inactive) | > 100 µM (inactive) | > 100 µM (inactive) | > 100 µM (inactive) | > 100 µM (inactive) | > 100 µM (inactive) | > 100 µM (inactive) | > 100 µM (inactive) | > 100 µM (inactive) | > 100 µM (inactive) | > 100 µM (inactive) | > 100 µM (inactive) | > 100 µM (inactive) | > 100 | – |
| OC1(C(O)(c2ccc(-c3ccccc3)cc2)c2ccc(-c3ccccc3)cc2)CCCCC1 | > 100 µM (inactive) | > 100 µM (inactive) | > 100 µM (inactive) | > 100 µM (inactive) | > 100 µM (inactive) | 63.4 µM (inactive) | > 100 µM (inactive) | > 100 µM (inactive) | > 100 µM (inactive) | > 100 µM (inactive) | > 100 µM (inactive) | 87.9 µM (inactive) | > 100 µM (inactive) | > 100 µM (inactive) | > 100 µM (inactive) | > 100 µM (inactive) | > 100 µM (inactive) | > 100 µM (inactive) | 23 | – |
| Cc1cc2nc3c(C#N)c4c(c(Nc5ccc(Cl)cc5)n3c2cc1C)CCC4 | > 100 µM (inactive) | – | – | – | 58.7 µM (inactive) | 18.2 µM (inactive) | 17.9 µM (inactive) | 32.5 µM (inactive) | 32.9 µM (inactive) | 15.9 µM (inactive) | 17.3 µM (inactive) | 18.1 µM (inactive) | – | 17.9 µM (inactive) | – | 16 µM (inactive) | 20.5 µM (inactive) | 18.4 µM (inactive) | 18.8 | – |
| CC(C)=CC(=O)N1CCN(C(=O)C=C(C)C)CC1 | > 100 µM (inactive) | > 100 µM (inactive) | > 100 µM (inactive) | > 100 µM (inactive) | > 100 µM (inactive) | > 100 µM (inactive) | > 100 µM (inactive) | > 100 µM (inactive) | > 100 µM (inactive) | > 100 µM (inactive) | – | > 100 µM (inactive) | > 100 µM (inactive) | > 100 µM (inactive) | > 100 µM (inactive) | > 100 µM (inactive) | > 100 µM (inactive) | > 100 µM (inactive) | > 100 | > 100 µM (inactive) |
| C/C(Cl)=N\OC(=O)Nc1ccc(C)cc1 | 17.3 µM (inactive) | 9.91 µM (inactive) | – | > 100 µM (inactive) | 46.9 µM (inactive) | 17.7 µM (inactive) | 18 µM (inactive) | 18.5 µM (inactive) | 17.2 µM (inactive) | 18.7 µM (inactive) | – | 22.9 µM (inactive) | 16.7 µM (inactive) | 16.8 µM (inactive) | 17.2 µM (inactive) | 18.7 µM (inactive) | 16.7 µM (inactive) | 15.8 µM (inactive) | 15.4 | 2.04 µM (inactive) |
| OC1C2CN3CCN(C2)CC1(c1ccccc1)C3 (stereo not drawn) | – | > 100 µM (inactive) | > 100 µM (inactive) | > 100 µM (inactive) | > 100 µM (inactive) | > 100 µM (inactive) | > 100 µM (inactive) | > 100 µM (inactive) | > 100 µM (inactive) | > 100 µM (inactive) | > 100 µM (inactive) | > 100 µM (inactive) | > 100 µM (inactive) | > 100 µM (inactive) | – | > 100 µM (inactive) | > 100 µM (inactive) | > 100 µM (inactive) | – | – |
| CCOP(C)(=O)C(Cc1c[nH]c2ccccc12)C(=O)O (stereo not drawn) | > 100 µM (inactive) | > 100 µM (inactive) | > 100 µM (inactive) | > 100 µM (inactive) | > 100 µM (inactive) | > 100 µM (inactive) | > 100 µM (inactive) | – | > 100 µM (inactive) | > 100 µM (inactive) | – | > 100 µM (inactive) | > 100 µM (inactive) | > 100 µM (inactive) | > 100 µM (inactive) | – | > 100 µM (inactive) | > 100 µM (inactive) | > 100 | > 100 µM (inactive) |
